Experiments:
Format in all cases: cell-based
[1] = test system: Lovo cells (G13D); experiment: Cell viability assay (CellTiter-Glo), Lovo cells; conditions: Homo sapiens, 72 h; Lovo cells, 3 days incubation, CellTiter-Glo luminescence; read-out: Inhibition of Cancerous Cells IC50 Lovo (G13D)
In short: (§1)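 Cells were grown in medium with 2.5% FBS at 2,000 cells/well (96-well) or 500 cells/well (384-well); Lovo were plated at 4,000 or 1,000. Compound exposure lasted 3 days at 37° C., 5% CO2. Viability was measured as CellTiter-Glo luminescence.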

[2] = test system: SW480 cells (G12V); experiment: Cell viability assay (CellTiter-Glo), SW480 cells; conditions: Homo sapiens, 72 h; SW480 cells, 3 days incubation, CellTiter-Glo luminescence; read-out: Inhibition of Cancerous Cells IC50 SW480 (G12V)
In short: as §1

[3] = test system: SW48 cells (wt); experiment: Cell viability assay (CellTiter-Glo), SW48 cells; conditions: Homo sapiens, 72 h; SW48 cells, 3 days incubation, CellTiter-Glo luminescence; read-out: Inhibition of Cancerous Cells IC50 SW48 (wt)
In short: as §1

[4] = test system: AsPC-1 cells (G12D); experiment: Cell viability assay (CellTiter-Glo), AsPC-1 cells; conditions: Homo sapiens, ASPC1, 72 h, 3 days incubation, CellTiter-Glo luminescence, read-out: Inhibition of Cancerous Cells IC50 AsPC-1 (G12D)
Protocol: H358, H23, SW48, and AsPC-1 cells were cultured in RPMI 1640 media supplemented with 10% fetal bovine serum, streptomycin, and penicillin. Lovo and SW480 cells were cultured in DMEM media supplemented with 10% fetal bovine serum, streptomycin, and penicillin. The cell lines were plated in their respective medium supplemented with 2.5% fetal bovine serum, streptomycin, and penicillin. All cell lines were plated in white walled 96-well plates at 2,000 cells/well or 384-well plates at 500 cells/well, except Lovo, which were plated at 4,000 or 1,000 cells/well, respectively. The cells were incubated in DMSO (control) or a compound for 3 days at 37° C. under 5% CO2. A CELLTITER-GLO® reagent (100 μL) was then added to each well. After a 10 min incubation with shaking, luminescence was measured using an ENVISION® multimode plate reader.

[5] = test system: H358 cells (G12C); experiment: Cell viability assay (CellTiter-Glo), H358 cells; conditions: Homo sapiens, NCI-H358, 72 h; H358 cells, 3 days incubation, CellTiter-Glo luminescence; read-out: Inhibition of Cancerous Cells IC50 H358 (G12C)
In short: as §1

## COc1cc2c(N[C@H](C)c3cc(N)cc(C(F)(F)F)c3)nc(C)nc2cc1OCCCCCCCN1CCC(c2cc3c(cc2F)C(=O)N(C2CCC(=O)NC2=O)C3)CC1 (stereo partly drawn) [Compound A28, 3-(5-(1-(7-((4-(((R)-1-(3-Amino-5-(trifluoromethyl)phenyl)ethyl)amino)-6-methoxy-2-methylquinazolin-7-yl)oxy)heptyl)piperidin-4-yl)-6-fluoro-1-oxoisoindolin-2-yl)-piperidine-2,6-dione]
[1]
  IC50: 0.55 µM
[2]
  IC50: 0.5 µM
[3]
  IC50: 0.44 µM
[4]
  IC50: 1.1 µM
[5]
  IC50: 1.2 µM

## COc1cc2c(N[C@H](C)c3cccc(Br)c3)nc(C)nc2cc1OCCCCN1CCN(C(=O)COc2cc3c(cc2F)C(=O)N(C2CCC(=O)NC2=O)C3)CC1 (stereo partly drawn) [Compound A29, 3-(5-(2-(4-(4-((4-(((R)-1-(3-Bromophenyl)ethyl)amino)-6-methoxy-2-methyl-quinazolin-7-yl)oxy)butyl)piperazin-1-yl)-2-oxoethoxy)-6-fluoro-1-oxoisoindolin-2-yl)-piperidine-2,6-dione]
[1]
  IC50: 0.73 µM
[2]
  IC50: 5.7 µM
[3]
  IC50: 0.89 µM
[4]
  IC50: > 10 µM
[5]
  IC50: 6.8 µM

## COc1cc2c(N[C@H](C)c3cccc(Br)c3)nc(C)nc2cc1OCCCCN1CCN(C(=O)CNc2cc3c(cc2F)C(=O)N(C2CCC(=O)NC2=O)C3)CC1 (stereo partly drawn) [Compound A30, 3-(5-((2-(4-(4-((4-(((R)-1-(3-Bromophenyl)ethyl)amino)-6-methoxy-2-methyl-quinazolin-7-yl)oxy)butyl)piperazin-1-yl)-2-oxoethyl)amino)-6-fluoro-1-oxoisoindolin-2-yl)-piperidine-2,6-dione]
[1]
  IC50: 0.04 µM
[2]
  IC50: 3.9 µM
[3]
  IC50: 0.64 µM
[4]
  IC50: 7.8 µM
[5]
  IC50: 4.2 µM

## COc1ccc(C2=N[C@@H](c3ccc(Cl)cc3)[C@@H](c3ccc(Cl)cc3)N2C(=O)N2CCN(CC(=O)NCCCCCCCCOc3cc4nc(C)nc(N[C@H](C)c5cccc(Br)c5)c4cc3OC)C(=O)C2)c(OC(C)C)c1 [Compound C2, 2-(4-((4S,5R)-4,5-bis(4-chlorophenyl)-2-(2-isopropoxy-4-methoxyphenyl)-4,5-dihydro-1H-imidazole-1-carbonyl)-2-oxopiperazin-1-yl)-N-(8-((4-(((R)-1-(3-bromophenyl)-ethyl)amino)-6-methoxy-2-methylquinazolin-7-yl)oxy)octyl)acetamide]
[1]
  IC50: > 10 µM
[2]
  IC50: > 10 µM
[3]
  IC50: > 10 µM
[5]
  IC50: > 10 µM

## COc1ccc(C2=N[C@@H](c3ccc(Cl)cc3)[C@@H](c3ccc(Cl)cc3)N2C(=O)N2CCN(CC(=O)NCCCCCCCCCCOc3cc4nc(C)nc(N[C@H](C)c5cccc(Br)c5)c4cc3OC)C(=O)C2)c(OC(C)C)c1 [Compound C3, 2-(4-((4S,5R)-4,5-Bis(4-chlorophenyl)-2-(2-isopropoxy-4-methoxyphenyl)-4,5-dihydro-1H-imidazole-1-carbonyl)-2-oxopiperazin-1-yl)-N-(10-((4-(((R)-1-(3-bromophenyl)-ethyl)amino)-6-methoxy-2-methylquinazolin-7-yl)oxy)decyl)acetamide]
[1]
  IC50: > 10 µM
[2]
  IC50: > 10 µM
[3]
  IC50: > 10 µM
[5]
  IC50: > 10 µM

## COc1ccc(C2=N[C@@H](c3ccc(Cl)cc3)[C@@H](c3ccc(Cl)cc3)N2C(=O)N2CCN(CC(=O)NCCCCCCCCOc3cc4nc(C)nc(N[C@H](C)c5cccc(Br)c5)c4cc3OC)CC2)c(OC(C)C)c1 [Compound C4, 2-(4-((4S,5R)-4,5-bis(4-chlorophenyl)-2-(2-isopropoxy-4-methoxyphenyl)-4,5-dihydro-1H-imidazole-1-carbonyl)piperazin-1-yl)-N-(8-((4-(((R)-1-(3-bromophenyl)ethyl)-amino)-6-methoxy-2-methylquinazolin-7-yl)oxy)octyl)acetamide]
[1]
  IC50: > 10 µM
[2]
  IC50: > 10 µM
[3]
  IC50: > 10 µM
[5]
  IC50: > 10 µM

## COc1ccc(C2=N[C@@H](c3ccc(Cl)cc3)[C@@H](c3ccc(Cl)cc3)N2C(=O)N2CCN(CC(=O)NCCCCCCCCCCOc3cc4nc(C)nc(N[C@H](C)c5cccc(Br)c5)c4cc3OC)CC2)c(OC(C)C)c1 [Compound C5, 2-(4-((4S,5R)-4,5-Bis(4-chlorophenyl)-2-(2-isopropoxy-4-methoxyphenyl)-4,5-dihydro-1H-imidazole-1-carbonyl)piperazin-1-yl)-N-(10-((4-(((R)-1-(3-bromophenyl)ethyl)-amino)-6-methoxy-2-methylquinazolin-7-yl)oxy)decyl)acetamide]
[1]
  IC50: > 10 µM
[2]
  IC50: > 10 µM
[3]
  IC50: > 10 µM
[5]
  IC50: > 10 µM

## COc1ccc(C2=N[C@@H](c3ccc(Cl)cc3)[C@@H](c3ccc(Cl)cc3)N2C(=O)N2CCN(CC(=O)NCCCCCCCCCCCCOc3cc4nc(C)nc(N[C@H](C)c5cccc(Br)c5)c4cc3OC)CC2)c(OC(C)C)c1 [Compound C6, 2-(4-((4S,5R)-4,5-Bis(4-chlorophenyl)-2-(2-isopropoxy-4-methoxyphenyl)-4,5-dihydro-1H-imidazole-1-carbonyl)piperazin-1-yl)-N-(12-((4-(((R)-1-(3-bromophenyl)ethyl)-amino)-6-methoxy-2-methylquinazolin-7-yl)oxy)dodecyl)acetamide]
[1]
  IC50: > 10 µM
[2]
  IC50: > 10 µM
[3]
  IC50: > 10 µM
[5]
  IC50: > 10 µM

## COc1cc2c(N[C@H](C)c3cccc(Br)c3)nc(C)nc2cc1OCCCCCCC(=O)N[C@H](C(=O)N1C[C@H](O)C[C@H]1C(=O)NCc1ccc(-c2scnc2C)cc1)C(C)(C)C [Compound D1, (2S,4R)-1-((S)-2-(7-((4-(((R)-1-(3-Bromophenyl)ethyl)amino)-6-methoxy-2-methylquinazolin-7-yl)oxy)heptanamido)-3,3-dimethylbutanoyl)-4-hydroxy-N-(4-(4-methyl-thiazol-5-yl)benzyl)pyrrolidine-2-carboxamide]
[1]
  IC50: 6.4 µM
[2]
  IC50: 1.3 µM
[3]
  IC50: 7.9 µM
[5]
  IC50: 1.6 µM

## COc1cc2c(N[C@H](C)c3cccc(Br)c3)nc(C)nc2cc1OCCCCCCCCCCC(=O)N[C@H](C(=O)N1C[C@H](O)C[C@H]1C(=O)NCc1ccc(-c2scnc2C)cc1)C(C)(C)C [Compound D3, (2S,4R)-1-((S)-2-(11-((4-(((R)-1-(3-Bromophenyl)ethyl)amino)-6-methoxy-2-methylquinazolin-7-yl)oxy)undecanamido)-3,3-dimethylbutanoyl)-4-hydroxy-N-(4-(4-methyl-thiazol-5-yl)benzyl)pyrrolidine-2-carboxamide]
[1]
  IC50: > 10 µM
[2]
  IC50: > 10 µM
[3]
  IC50: > 10 µM
[5]
  IC50: > 10 µM

## COc1cc2c(N[C@H](C)c3cccc(Br)c3)nc(C)nc2cc1OCCCCCCCCCCCCC(=O)N[C@H](C(=O)N1C[C@H](O)C[C@H]1C(=O)NCc1ccc(-c2scnc2C)cc1)C(C)(C)C [Compound D4, (2S,4R)-1-((S)-2-(13-((4-(((R)-1-(3-Bromophenyl)ethyl)amino)-6-methoxy-2-methylquinazolin-7-yl)oxy)tridecanamido)-3,3-dimethylbutanoyl)-4-hydroxy-N-(4-(4-methylthiazol-5-yl)benzyl)pyrrolidine-2-carboxamide]
[1]
  IC50: > 10 µM
[2]
  IC50: 2.7 µM
[3]
  IC50: > 10 µM
[5]
  IC50: > 10 µM

## COc1cc2c(N[C@H](C)c3cccc(Br)c3)nc(C)nc2cc1OCCCCCCCCCOc1cc(-c2scnc2C)ccc1CNC(=O)[C@@H]1C[C@@H](O)CN1C(=O)[C@@H](NC(C)=O)C(C)(C)C [Compound D12, (2S,4R)-1-((S)-2-acetamido-3,3-dimethylbutanoyl)-N-(2-((9-((4-(((R)-1-(3-bromophenyl)ethyl)amino)-6-methoxy-2-methylquinazolin-7-yl)oxy)nonyl)oxy)-4-(4-methylthiazol-5-yl)benzyl)-4-hydroxypyrrolidine-2-carboxamide]
[1]
  IC50: 3.1 µM
[2]
  IC50: 3.5 µM
[3]
  IC50: 5.4 µM
[5]
  IC50: 4.3 µM

## COc1cc2c(N[C@H](C)c3cccc(Br)c3)nc(C)nc2cc1OCCCCCCCCCCCOc1cc(-c2scnc2C)ccc1CNC(=O)[C@@H]1C[C@@H](O)CN1C(=O)[C@@H](NC(C)=O)C(C)(C)C [Compound D13, (2S,4R)-1-((S)-2-Acetamido-3,3-dimethylbutanoyl)-N-(2-((11-((4-(((R)-1-(3-bromophenyl)ethyl)amino)-6-methoxy-2-methylquinazolin-7-yl)oxy)undecyl)oxy)-4-(4-methylthiazol-5-yl)benzyl)-4-hydroxypyrrolidine-2-carboxamide]
[1]
  IC50: 1.6 µM
[2]
  IC50: 2.9 µM
[3]
  IC50: > 10 µM
[5]
  IC50: > 10 µM

— US20240025863A1, “SOS1 PROTEIN DEGRADERS, PHARMACEUTICAL COMPOSITIONS THEREOF, AND THEIR THERAPEUTIC APPLICATIONS” (BioTheryX, Inc., priority 2020, published 2024)
